From patent US7326540B2, “Methods for identifying compounds that modulate stabilization of secretase-associated proteins” (priority 2003, dated 2008)
Where a SMILES comes first, the peptide text is derived from it. The star is where a group is joined. Cbz = O=C(OCc1ccccc1)*; CH2F = FC*

Tests used:
Type in all cases: cell-based, Chinese Hamster
[1] = system: BACE; test: BACE protein levels by Western blot and densitometry in CAB cells
Method: (§1) Chinese Hamster Ovary (CHO) cells expressing APP751 and BACE (CAB), CHO cells expressing full-length APP and wild-type PS1 (CHO-APP751/PS1) or expressing C99 and wild-type PS1 (CHO-CC99/PS1), H4 human neuroglioma cells expressing APP751 (H4-APP751), mouse embryonic fibroblast (MEF), embryonic stem (ES) cells, and human epithelial A431 cells were grown as described previously (Marambaud, P. et al., Embo J 21, 1948-56 (2002); Cai, H. et al., Nat Neurosci 4, 233-4 (2001); Sato, N. et al., Nat Cell Biol 2, 863-70 (2000); Puglielli, L., Ellis, B. C., Saunders, A. J. & Kovacs, D. M., J Biol Chem 278, 19777-83 (2003); Wolfe, M. S. et al., Nature 398, 513-7 (1999)). For the induction of apoptosis, we used staurosporine or etoposide (Calbiochem (EMD Biosciences, San Diego, Calif.)). For Aβ measurements, cells were seeded at the density of 0.5×10^6 cells per well in 6 well plates. After 48 hours, cells were treated with either STS (1 μM) for 6 hours. In order to inhibit caspase activation a sister plate of cells was pre-treated with zVAD (1001M, Enzyme Systems Products) for 1 hour before STS treatment. For time-course experiments, cells were seeded at the density of 2×10^6 cells per 100 mm dish and treated with STS (1 μM) or etoposide (100 μg/mL). At different time points (0, 3, 6, 9, 12 and 24 hours), the cells were scraped, centrifuged and then lysed in buffer containing 1% NP40. Western blot analysis was performed as previously described (Tesco, G., Koh, Y. H. & Tanzi, R. E., J Biol Chem 278, 46074-80 (2003)). Densitometry analysis was performed on a Macintosh computer using the public domain NIH Image program (developed at the U.S. National Institutes of Health and available on the Internet at http://rsb.info.nih.gov/nih-image/).
It has been previously shown that overexpression of BACE enhances β-secretase cleavage of APP leading to the accumulation of intracellular C99 (Vassar, R. et al., Science 286, 735-41 (1999)). We first asked whether apoptosis/caspase activation leads to accumulation of C99 owing to increased β-secretase activity.

[2] = system: Aβ production in CHO cells overexpressing APP751 and PS1 WT; test: Secreted Aβ ELISA in CHO cells overexpressing APP751 and PS1 during induced apoptosis
Method: We examined Aβ generation induced by apoptosis in CHO cell lines. We used CHO cell lines stably overexpressing both APP751 and PS1 WT. For the induction of apoptosis, we used 1 μM staurosporine (STS) in serum free media. Secreted Aβ was measured in the conditioned media of cells treated with STS for 6 hrs using a sensitive ELISA assay [courtesy of Dr. Dennis Selkoe; M. S. Wolfe et al., Nature 398, 513-7 (1999)].
Treatment with either STS for 6 hrs or etoposide for 12 hrs induced from 10 to 20% of cell death assayed by MTT assay, which is a colorimetric short-term suspension culture assay in which the yellow tetrazolium salt (MTT) is reduced in metabolically active cells to form insoluble purple formazan crystals, which are solubilized by the addition of a detergent.
as §1, with “In order to inhibit caspase activation a sister plate of cells was pre-treated with zVAD (1001M, Enzyme Systems Products) for 1 hour before STS treatment.” left out
Secreted Aβ1-total was measured in the conditioned media of untreated cells or of cells treated with STS or STS plus zVAD using a sensitive ELISA (Wolfe, M. S. et al., Nature 398, 513-7 (1999). At least three different experiments were carried out and each experiment was performed at least in triplicate.

[3] = system: BACE; test: BACE protein levels by Western blot in CHO cells overexpressing APP751 and PS1WT
Excerpt: We examined whether the apoptosis-mediated increase in Aβ generation was associated with changes in the levels and activities of BACE and β-secretase. […] In addition, upregulation of BACE occured also in H4 human neuroglioma (FIG. 3B) and in BACE+/+ mouse fibroblasts (FIG. 3C). BACE−/− mouse fibroblasts were used to show the specificity of the antibody used to detect BACE (FIG. 3C).
Chinese Hamster Ovary (CHO) cells expressing APP751 and BACE (CAB), CHO cells expressing full-length APP and wild-type PS1 (CHO-APP751/PS1) or expressing C99 and wild-type PS1 (CHO-CC99/PS1), H4 human neuroglioma cells expressing APP751 (H4-APP751), mouse embryonic fibroblast (MEF), embryonic stem (ES) cells, and human epithelial A431 cells were grown as described previously (Marambaud, P. et al., Embo J 21, 1948-56 (2002); Cai, H. et al., Nat Neurosci 4, 233-4 (2001); Sato, N. et al., Nat Cell Biol 2, 863-70 (2000); Puglielli, L., Ellis, B. C., Saunders, A. J. & Kovacs, D. M., J Biol Chem 278, 19777-83 (2003); Wolfe, M. S. et al., Nature 398, 513-7 (1999)). For the induction of apoptosis, we used staurosporine or etoposide (Calbiochem (EMD Biosciences, San Diego, Calif.)). For Aβ measurements, cells were seeded at the density of 0.5×10^6 cells per well in 6 well plates. After 48 hours, cells were treated with either STS (1 μM) for 6 hours. […]

[4] = etoposide 100 μg/mL + 200 μM zVAD, 12 hrs, compared to etoposide treated cells
[5] = zVAD 200 μM pretreated 1 hr before STS, compared to STS-treated cells, p<0.05
[6] = 1 μM STS in serum free media, 6 hrs, p<0.05 t-test

| SMILES | BACE accumulation during STS-induced apoptosis ([1]; zVAD, both CAB and H4-APP751 cells) | Secreted Aβ42 [2, 4] | Secreted Aβtotal [2, 4] | Secreted Aβ1-42 [2, 5] | Secreted Aβtotal [2, 5] | BACE upregulation during STS-induced apoptosis ([3]; zVAD 100 μM, all cell types (CHO, H4 human neuroglioma, BACE+/+ mouse fibroblasts)) | BACE protein levels increase ([1]; after 6 hours or 24 hours of STS treatment, CAB cells) | Secreted Aβ1-42 [2, 6] | Secreted Aβtotal [2, 6] | Aβ1-total increase ([2]; STS-treated CHO-APP751/PS1 cells, 6 hours) | BACE protein levels ([3]; after 24 hrs of STS treatment) |
| --- | --- | --- | --- | --- | --- | --- | --- | --- | --- | --- | --- |
| COC(=O)C[C@H](NC(=O)[C@H](C)NC(=O)[C@@H](NC(=O)OCc1ccccc1)C(C)C)C(=O)CF [zVAD] (Cbz-Val-Ala-Asp(OMe)-CH2F) | prevented BACE accumulation | significantly attenuate | significantly attenuate | significantly reduced | significantly reduced | prevented BACE upregulation | – | – | – | – | – |
| CN[C@@H]1C[C@H]2O[C@@](C)([C@@H]1OC)n1c3ccccc3c3c4c(c5c6ccccc6n2c5c31)C(=O)NC4 [STS, staurosporine] | – | – | – | – | – | – | ~4 fold | significantly increased | significantly increased | ~2.5 fold | significant increase |
